In ChEMBL document CHEMBL1126376, “Synthesis and activities of 9-pyrrolo-9-deoxoerythromycin a analogs” (1992):
Values after ≈ are worked out from the molar mass of the structure shown.

Experiments:
Assay in all cases: microbe, parasite or virus in culture
Type in all cases: functional
[1] = system: Streptococcus pyogenes
Description: In vitro minimum inhibitory concentration against Streptococcus pyogenes (MB 2874) was determined

[2] = system: Staphylococcus aureus
Description: In vitro minimum inhibitory concentration against Staphylococcus aureus (MB 2865) was determined

[3] = system: Haemophilus influenzae
Description: In vitro minimum inhibitory concentration against Haemophilus influenzae (MB 5363) was determined

[4] = system: Enterococcus faecalis
Description: In vitro minimum inhibitory concentration against Enterococcus faecalis (MB 5407) was determined

[5] = system: Staphylococcus epidermidis
Description: In vitro minimum inhibitory concentration against Staphylococcus epidermidis (MB 5414) was determined

[6] = system: Streptococcus pneumoniae
Description: In vitro minimum inhibitory concentration against Streptococcus pneumoniae (CL 2883) was determined

SMILES | MIC [1] [µg/mL] | MIC [2] [µg/mL] | MIC [3] [µg/mL] | MIC [4] [µg/mL] | MIC [5] [µg/mL] | MIC [6] [µg/mL]
CC[C@H]1OC(=O)[C@H](C)[C@@H](O[C@H]2C[C@@](C)(OC)[C@@H](O)[C@H](C)O2)[C@H](C)[C@@H](O[C@@H]2O[C@H](C)C[C@H](N(C)C)[C@H]2O)[C@](C)(O)C[C@@H](C)[C@H](n2cccc2)[C@H](C)[C@@H](O)[C@]1(C)O | 4 (≈ 5.1 µM) | 64 (≈ 81.5 µM) | 128 (≈ 163 µM) | 64 (≈ 81.5 µM) | 32 (≈ 40.8 µM) | 4 (≈ 5.1 µM)
CC[C@H]1OC(=O)[C@H](C)[C@@H](O[C@H]2C[C@@](C)(OC)[C@@H](O)[C@H](C)O2)[C@H](C)[C@@H](O[C@@H]2O[C@H](C)C[C@H](N(C)C)[C@H]2O)[C@](C)(O)C[C@@H](C)[C@@H](n2ccc(O)c2C(=O)OC(C)(C)C)[C@H](C)[C@@H](O)[C@]1(C)O | 8 (≈ 8.88 µM) | 64 (≈ 71 µM) | > 128 | 64 (≈ 71 µM) | 64 (≈ 71 µM) | 16 (≈ 17.8 µM)
CC[C@H]1OC(=O)[C@H](C)[C@@H](O[C@H]2C[C@@](C)(OC)[C@@H](O)[C@H](C)O2)[C@H](C)[C@@H](O[C@@H]2O[C@H](C)C[C@H](N(C)C)[C@H]2O)[C@](C)(O)C[C@@H](C)[C@H](n2ccc(C=O)c2)[C@H](C)[C@@H](O)[C@]1(C)O | 32 (≈ 39.4 µM) | 32 (≈ 39.4 µM) | 64 (≈ 78.7 µM) | 64 (≈ 78.7 µM) | 32 (≈ 39.4 µM) | 64 (≈ 78.7 µM)
CC[C@H]1OC(=O)[C@H](C)[C@@H](O[C@H]2C[C@@](C)(OC)[C@@H](O)[C@H](C)O2)[C@H](C)[C@@H](O[C@@H]2O[C@H](C)C[C@H](N(C)C)[C@H]2O)[C@](C)(O)C[C@@H](C)[C@@H](n2cccc2)[C@H](C)[C@@H](O)[C@]1(C)O |  | 128 (≈ 163 µM) | > 128 | 32 (≈ 40.8 µM) | 64 (≈ 81.5 µM) | 2 (≈ 2.55 µM)
CC[C@H]1OC(=O)[C@H](C)[C@@H](O[C@H]2C[C@@](C)(OC)[C@@H](O)[C@H](C)O2)[C@H](C)[C@@H](O[C@@H]2O[C@H](C)C[C@H](N(C)C)[C@H]2O)[C@](C)(O)C[C@@H](C)[C@H](n2ccc(O)c2C(=O)OC(C)(C)C)[C@H](C)[C@@H](O)[C@]1(C)O | 0.25 (≈ 0.277 µM) | 8 (≈ 8.88 µM) | 32 (≈ 35.5 µM) | 16 (≈ 17.8 µM) | 4 (≈ 4.44 µM) | 0.5 (≈ 0.555 µM)
CC[C@H]1OC(=O)[C@H](C)[C@@H](O[C@H]2C[C@@](C)(OC)[C@@H](O)[C@H](C)O2)[C@H](C)[C@@H](O[C@@H]2O[C@H](C)C[C@H](N(C)C)[C@H]2O)[C@](C)(O)C[C@@H](C)[C@@H](n2ccc(C=O)c2)[C@H](C)[C@@H](O)[C@]1(C)O |  | 32 (≈ 39.4 µM) | 128 (≈ 157 µM) | 16 (≈ 19.7 µM) | 8 (≈ 9.84 µM) | 1 (≈ 1.23 µM)
